Laboratory results from ChEMBL document CHEMBL5260820, “Discovery of novel steroidal histamine H3 receptor antagonists/inverse agonists” (Bioorg Med Chem Lett, 2017).
In brackets after ≈: the same amount, converted by molar mass.

Tests used:
Rattus norvegicus [1] = species on record: Rattus norvegicus; experiment: Displacement of [3H]quinuclidinyl benzilate from Wistar rat cortex muscarinic AChR at 1 uM by liquid scintillation counting analysis relative to control; type: tissue-based
Histamine H3 receptor [2] = biological target: T1, Histamine H3 receptor (Homo sapiens, UniProt Q9Y5N1); experiment: Displacement of N-alpha-[methyl-3H]-methylhistamine dihydrochloride from recombinant human histamine H3 receptor expressed in CHO-K1 cells assessed as inhibition constant incubated for 30 mins by liquid scintillation analysis; type: cell-based
Histamine H3 receptor [3] = biological target: Histamine H3 receptor (Rattus norvegicus, UniProt Q9QYN8); experiment: Displacement of N-alpha-[methyl-3H]-methylhistamine dihydrochloride from Sprague-Dawley rat brain membrane histamine H3 receptor assessed as inhibition constant incubated for 30 mins by liquid scintillation counting analysis; type: cell membranes
[4] = biological target: Histamine H3 receptor (Rattus norvegicus) (UniProt Q9QYN8); experiment: Displacement of N-alpha-[methyl-3H]-methylhistamine dihydrochloride from Sprague-Dawley rat brain membrane histamine H3 receptor at 300 nM incubated for 30 mins by liquid scintillation counting analysis relative to control; type: cell membranes
[5] = Ratio AUC in Wistar rat brain to plasma at 3 mg/kg, po or iv measured upto 5 hrs by HPLC-MS/MS analysis; type: ADME, organism-based; conditions: brain and plasma, read-out: Ratio AUC
[6] = Volume of distribution in Wistar rat at 3 mg/kg, po or iv measured upto 5 hrs by HPLC-MS/MS analysis; type: ADME, organism-based; conditions: in vivo
[7] = Bioavailability in Wistar rat at 3 mg/kg, po or iv measured upto 5 hrs by HPLC-MS/MS analysis; type: ADME, organism-based; conditions: in vivo
[8] = Tmax in Wistar rat at 3 mg/kg, po or iv measured upto 5 hrs by HPLC-MS/MS analysis; type: ADME, organism-based; conditions: in vivo
Rattus norvegicus [9] = experiment: Anti-dipsogenic activity in imetit-induced Wistar rat model assessed as inhibition of imetit-induced water intake at 10 mg/kg, po preadministered for 30 mins followed by imetit stimulation and measured after 40 mins relative to control; type: functional; conditions: 1.167 h, time 70 min
[10] = Selectivity index, ratio of Ki for displacement of [3H]quinuclidinyl benzilate from Wistar rat cortex muscarinic AChR to Ki for N-alpha-[methyl-3H]-methylhistamine dihydrochloride from Sprague-Dawley rat brain membrane histamine H3 receptor
[11] = Terminal half-life in Wistar rat brain at 3 mg/kg, po or iv measured upto 5 hrs by HPLC-MS/MS analysis; type: ADME, organism-based; conditions: read-out: beta t1/2 (converted)
[12] = Terminal half-life in Wistar rat plasma at 3 mg/kg, po or iv measured upto 5 hrs by HPLC-MS/MS analysis; type: ADME, organism-based; conditions: read-out: beta t1/2 (converted)
[13] = Thermodynamic […] of the compound measured after 24 hrs by HPLC-UV-MS analysis; type: physicochemical; conditions: read-out: Therm_solubility
[14] = Apparent permeability in vinblastine treated human CaCo-2 cells; type: ADME, cell-based
[15] = Stability in human microsomes; type: ADME, Microsome
[16] = Stability in rat microsomes; type: ADME, Microsome
Histamine H3 receptor [17] = biological target: T1, Histamine H3 receptor; experiment: Inverse agonist activity at recombinant human histamine H3 receptor expressed in CHO-K1 cells assessed as maximal efficacy preincubated for 10 mins followed by [35S]GTPgammaS addition and measured after 60 mins by TopCount NXT based scintillation analysis relative to control; type: cell-based; conditions: time 70.0 min
Rattus norvegicus [18] = species on record: Rattus norvegicus; experiment: Displacement of [3H]quinuclidinyl benzilate from Wistar rat cortex muscarinic AChR at 3 uM by liquid scintillation counting analysis relative to control; type: tissue-based
Histamine H3 receptor [19] = biological target: T1, Histamine H3 receptor; experiment: Antagonist activity at human histamine H3 receptor expressed in CHO-K1 cells assessed as inhibition of imetit-stimulation ERK1/2 phosphorylation by ELISA analysis; type: cell-based
Histamine H3 receptor [20] = biological target: T1, Histamine H3 receptor; experiment: Inverse agonist activity at recombinant human histamine H3 receptor expressed in CHO-K1 cells preincubated for 10 mins followed by [35S]GTPgammaS addition and measured after 60 mins by TopCount NXT based scintillation analysis; type: cell-based
[21] = Displacement of [3H]quinuclidinyl benzilate from Wistar rat cortex muscarinic AChR assessed as inhibition constant by liquid scintillation counting analysis; type: tissue-based
[22] = biological target: Estrogen receptor beta (Homo sapiens) (UniProt Q92731); experiment: Binding affinity to Estrogen receptor beta (unknown origin) at 1 uM by displacement assay relative to control
[23] = biological target: T2, Estrogen receptor (Homo sapiens) (UniProt P03372); experiment: Binding affinity to Estrogen receptor alpha (unknown origin) at 1 uM by displacement assay relative to control
T2 sequence (whole entry): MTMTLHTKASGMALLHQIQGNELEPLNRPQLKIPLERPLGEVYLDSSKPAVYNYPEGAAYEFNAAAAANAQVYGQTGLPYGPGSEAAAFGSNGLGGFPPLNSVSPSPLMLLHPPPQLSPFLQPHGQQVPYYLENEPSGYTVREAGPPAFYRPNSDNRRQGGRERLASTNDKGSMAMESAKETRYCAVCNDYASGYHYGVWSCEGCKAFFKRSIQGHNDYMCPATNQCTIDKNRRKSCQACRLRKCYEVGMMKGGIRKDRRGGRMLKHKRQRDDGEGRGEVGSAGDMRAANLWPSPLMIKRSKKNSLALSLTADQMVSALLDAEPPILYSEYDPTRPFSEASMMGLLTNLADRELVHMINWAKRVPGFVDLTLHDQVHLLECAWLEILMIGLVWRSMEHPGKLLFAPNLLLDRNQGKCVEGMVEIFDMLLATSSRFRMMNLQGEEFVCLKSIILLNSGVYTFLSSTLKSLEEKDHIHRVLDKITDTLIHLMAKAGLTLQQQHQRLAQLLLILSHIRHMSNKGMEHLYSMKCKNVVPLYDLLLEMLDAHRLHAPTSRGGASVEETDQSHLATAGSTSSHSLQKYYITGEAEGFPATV

[24] = biological target: Histamine H4 receptor (Homo sapiens) (UniProt Q9H3N8); experiment: Displacement of [3H]histamine from human histamine H4 receptors expressed in CHO-K1 cell membrane at 1 uM incubated for 30 mins by scintillation counter analysis relative to control; type: cell membranes
[25] = biological target: Histamine H2 receptor (Homo sapiens) (UniProt P25021); experiment: Displacement of [3H]tiotidine from recombinant human histamine H2 receptor expressed in CHO-K1 cell membrane at 1 uM incubated for 45 mins by Scintillation counter analysis relative to control; type: cell membranes
[26] = biological target: Histamine H1 receptor (Homo sapiens) (UniProt P35367); experiment: Displacement of [3H]pyrilamine from recombinant human histamine H1 receptor expressed in CHO-K1 cell membrane at 1 uM incubated for 30 mins by liquid scintillation counter analysis relative to control; type: cell membranes
Histamine H1 receptor (Homo sapiens), sequence (P35367 whole entry): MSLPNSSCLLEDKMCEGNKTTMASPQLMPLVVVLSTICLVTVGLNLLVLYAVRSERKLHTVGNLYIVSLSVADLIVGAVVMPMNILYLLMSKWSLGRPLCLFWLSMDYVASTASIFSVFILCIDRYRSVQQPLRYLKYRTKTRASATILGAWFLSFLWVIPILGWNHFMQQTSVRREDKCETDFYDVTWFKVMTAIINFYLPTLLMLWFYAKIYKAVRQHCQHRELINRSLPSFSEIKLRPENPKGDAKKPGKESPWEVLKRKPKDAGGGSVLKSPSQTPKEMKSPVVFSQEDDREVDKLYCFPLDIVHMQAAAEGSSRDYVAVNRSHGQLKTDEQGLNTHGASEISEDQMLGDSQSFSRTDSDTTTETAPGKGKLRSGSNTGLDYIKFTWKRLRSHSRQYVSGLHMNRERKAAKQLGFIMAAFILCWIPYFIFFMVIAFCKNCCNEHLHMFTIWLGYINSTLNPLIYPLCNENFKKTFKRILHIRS

T1 sequence (Q9Y5N1 whole entry): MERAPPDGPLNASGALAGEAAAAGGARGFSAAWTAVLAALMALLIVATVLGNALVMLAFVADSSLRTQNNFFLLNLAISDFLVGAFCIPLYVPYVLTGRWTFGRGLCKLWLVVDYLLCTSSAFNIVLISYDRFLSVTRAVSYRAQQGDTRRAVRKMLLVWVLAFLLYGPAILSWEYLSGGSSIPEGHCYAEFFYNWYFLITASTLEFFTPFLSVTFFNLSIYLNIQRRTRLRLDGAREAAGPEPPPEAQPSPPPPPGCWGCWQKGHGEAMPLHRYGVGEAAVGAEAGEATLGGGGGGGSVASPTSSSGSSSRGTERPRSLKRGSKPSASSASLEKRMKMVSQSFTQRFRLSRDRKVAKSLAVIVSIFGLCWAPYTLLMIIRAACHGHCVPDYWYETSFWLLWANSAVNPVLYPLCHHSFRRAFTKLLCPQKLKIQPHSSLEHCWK
Histamine H3 receptor (Rattus norvegicus, UniProt Q9QYN8), sequence (Q9QYN8 whole entry): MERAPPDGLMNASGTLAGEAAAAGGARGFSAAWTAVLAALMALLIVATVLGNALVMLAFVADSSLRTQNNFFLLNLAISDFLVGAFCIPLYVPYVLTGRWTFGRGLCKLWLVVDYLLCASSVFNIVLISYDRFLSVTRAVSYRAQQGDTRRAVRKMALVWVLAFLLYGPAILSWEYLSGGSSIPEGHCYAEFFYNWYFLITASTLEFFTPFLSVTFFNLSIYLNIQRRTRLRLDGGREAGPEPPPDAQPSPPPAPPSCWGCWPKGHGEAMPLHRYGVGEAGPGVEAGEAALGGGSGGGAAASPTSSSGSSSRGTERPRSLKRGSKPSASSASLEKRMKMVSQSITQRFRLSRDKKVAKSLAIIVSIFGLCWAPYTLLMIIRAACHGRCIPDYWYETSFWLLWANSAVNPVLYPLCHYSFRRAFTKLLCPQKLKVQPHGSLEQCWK
Histamine H4 receptor (Homo sapiens), sequence (Q9H3N8 whole entry): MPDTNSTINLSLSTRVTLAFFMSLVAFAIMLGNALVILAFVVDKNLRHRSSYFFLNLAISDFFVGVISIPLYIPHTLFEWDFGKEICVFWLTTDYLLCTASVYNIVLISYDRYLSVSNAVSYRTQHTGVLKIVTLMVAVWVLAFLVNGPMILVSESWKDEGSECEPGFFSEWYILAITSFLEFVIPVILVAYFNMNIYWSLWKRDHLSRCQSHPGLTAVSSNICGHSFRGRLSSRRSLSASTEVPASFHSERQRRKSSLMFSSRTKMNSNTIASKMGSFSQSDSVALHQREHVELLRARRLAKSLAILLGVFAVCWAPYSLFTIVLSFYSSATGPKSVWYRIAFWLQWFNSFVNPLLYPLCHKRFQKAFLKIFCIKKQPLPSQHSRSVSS
Estrogen receptor beta (Homo sapiens), sequence (Q92731 whole entry): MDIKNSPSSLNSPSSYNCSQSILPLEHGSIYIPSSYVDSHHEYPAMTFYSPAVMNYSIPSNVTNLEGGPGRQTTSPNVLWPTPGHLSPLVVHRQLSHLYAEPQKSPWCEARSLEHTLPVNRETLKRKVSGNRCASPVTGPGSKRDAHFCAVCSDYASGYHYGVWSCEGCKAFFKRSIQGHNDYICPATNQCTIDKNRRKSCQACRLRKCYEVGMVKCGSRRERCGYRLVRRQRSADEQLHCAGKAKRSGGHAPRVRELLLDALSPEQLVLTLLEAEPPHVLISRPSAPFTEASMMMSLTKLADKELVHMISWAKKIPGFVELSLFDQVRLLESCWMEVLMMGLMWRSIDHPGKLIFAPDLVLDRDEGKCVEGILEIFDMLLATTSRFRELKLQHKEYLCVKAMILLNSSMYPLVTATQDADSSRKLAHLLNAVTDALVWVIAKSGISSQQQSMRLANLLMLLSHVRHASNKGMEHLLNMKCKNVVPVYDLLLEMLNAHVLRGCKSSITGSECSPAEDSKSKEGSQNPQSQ
Histamine H2 receptor (Homo sapiens), sequence (P25021 whole entry): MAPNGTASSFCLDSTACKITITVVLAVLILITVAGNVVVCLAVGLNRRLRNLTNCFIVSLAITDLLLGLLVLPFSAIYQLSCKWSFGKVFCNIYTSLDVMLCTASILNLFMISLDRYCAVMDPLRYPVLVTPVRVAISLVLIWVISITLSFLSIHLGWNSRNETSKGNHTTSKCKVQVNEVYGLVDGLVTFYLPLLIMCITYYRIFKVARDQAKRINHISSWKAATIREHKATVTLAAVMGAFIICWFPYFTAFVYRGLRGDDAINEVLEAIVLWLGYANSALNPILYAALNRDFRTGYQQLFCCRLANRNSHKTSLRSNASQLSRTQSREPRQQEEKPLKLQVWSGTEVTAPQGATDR
Histamine H3 receptor (Rattus norvegicus), sequence (Q9QYN8 whole entry): as the sequence (Q9QYN8 whole entry) above

| SMILES | Activity (Rattus norvegicus [1]) | Ki (Histamine H3 receptor [2]) | Ki (Histamine H3 receptor [3]) | IC50 (Histamine H3 receptor [19]) | EC50 (Histamine H3 receptor [20]) | other results |
| --- | --- | --- | --- | --- | --- | --- |
| CN1CCC[C@H]2[C@@H]3CC[C@H]4C[C@@H](OC(=O)CCN5CCCC5)CC[C@]4(C)[C@H]3CC[C@@]21C | 44% | 10 nM | 39 nM | – | – | – |
| C[C@H]1[C@H]2CC[C@H]3[C@@H]4CC=C5C[C@@H](N(C)C)CC[C@]5(C)[C@H]4CC[C@]23CN1C | 84% | – | – | – | – | Activity [4]: 34% |
| C[C@]12CC[C@@H]3c4ccc(OCc5ccccn5)cc4CC[C@H]3[C@@H]1CC[C@@H]2N1CCCC1 | – | 2.2 nM | 7.6 nM | 50.8 nM | 1 nM | Kp at 5 h [5]: 41.1; Vd [6]: 19.7 L/kg; bioavailability [7]: 25.4%; Tmax [8]: 1 h; inhibition in vivo at 10 mg/kg (Rattus norvegicus [9]): 122%; Ratio Ki [10]: 141; half-life [11]: 1.5 h; half-life [12]: 1.5 h; solubility thermodynamic at 24 h [13]: 93 µM (≈ 38.7 µg/mL); Papp [14]: 10.1 ×10⁻⁶ cm/s; Stability [15]: 93%; Stability [16]: 67%; Emax (Histamine H3 receptor [17]): 23%; Activity (Rattus norvegicus [18]): 51%; Ki [21]: 1080 nM |
| Clc1ccc(CCCOCCCN2CCCCC2)cc1 [PITOLISANT] | – | – | – | – | – | Emax (Histamine H3 receptor [17]; filed as inverse agonist): 55%; Ki [21]: 19 nM |
| C[C@]12CC[C@@H]3c4ccc(OCc5ccncc5)cc4CC[C@H]3[C@@H]1CC[C@@H]2N1CCCC1 | 51% | 0.87 nM | 7.3 nM | – | – | – |
| C[C@@H]1Cc2cc(OCCCN3CCCC3)ccc2[C@H]2CC[C@]3(C)[C@@H](N4CCCC4)CC[C@H]3[C@H]12 | 72% | 1.2 nM | 18.3 nM | 12 nM | 0.2 nM | – |
| C[C@]12CC[C@H]3[C@@H](CC=C4C[C@@H](OCCCN5CCCC5)CC[C@@]43C)[C@@H]1CC[C@@H]2N1CCCC1 | – | 4.3 nM | 10.2 nM | – | – | Activity (Rattus norvegicus [18]): 92% |
| C[C@]12CC[C@@H]3c4ccc(OCCCCN5CCCC5)cc4CC[C@H]3[C@@H]1CC[C@@H]2N1CCCC1 | 73% | 0.8 nM | 24.8 nM | 7.5 nM | 0.7 nM | – |
| C[C@]12CC[C@@H]3c4ccc(OCc5ccc(Cl)cn5)cc4CC[C@H]3[C@@H]1CC[C@@H]2N1CCCC1 | – | 1.6 nM | 49 nM | – | – | Activity (Rattus norvegicus [18]): 66%; Ki [21]: 705 nM |
| C[C@]12CC[C@@H]3c4ccc(OCCCN5CCCCCC5)cc4CC[C@H]3[C@@H]1CC[C@@H]2N1CCCC1 | 77% | 0.6 nM | 2.1 nM | 17.5 nM | 0.6 nM | – |
| C[C@]12CC[C@@H]3c4ccc(OCCCN5CCNC(=O)C5)cc4CC[C@H]3[C@@H]1CC[C@@H]2N1CCCC1 | 73% | 0.6 nM | 3.2 nM | 17.4 nM | 0.6 nM | – |
| C[C@]12CC[C@@H]3c4ccc(OCCN5CCCC5)cc4CC[C@H]3[C@@H]1CC[C@@H]2N1CCCC1 | 69% | 1.9 nM | 23.1 nM | 29 nM | 0.3 nM | – |
| C[C@H]1CCCN1CCCOc1ccc2c(c1)CC[C@@H]1[C@@H]2CC[C@]2(C)[C@@H](N3CCCC3)CC[C@@H]12 | 76% | 0.3 nM | 5.6 nM | 11.6 nM | 0.6 nM | Ratio Ki [10]: 22; Ki [21]: 122 nM |
| C[C@]12CC[C@@H]3c4ccc(OCc5cccnc5)cc4CC[C@H]3[C@@H]1CC[C@@H]2N1CCCC1 | – | 3 nM | 19 nM | – | – | Activity (Rattus norvegicus [18]): 57%; Ki [21]: 797 nM |
| CC1CCCN1CCCOc1ccc2c(c1)CC[C@@H]1[C@@H]2CC[C@]2(C)[C@@H](N3CCCC3)CC[C@@H]12 (mixture of isomers) | 69% | 0.5 nM | 3.6 nM | 12.1 nM | 0.4 nM | Ratio Ki [10]: 62; Ki [21]: 224 nM |
| C[C@@]12CC[C@@H]3c4ccc(OCCCN5CCCC5)cc4CC[C@H]3[C@@H]1CCC2N1CCCC1 (stereo partly drawn) | 71% | 1.4 nM | 6.1 nM | 16 nM | 0.8 nM | – |
| C[C@]12CC[C@@H]3c4ccc(OCc5ccccc5)cc4CC[C@H]3[C@@H]1CC[C@@H]2N1CCCC1 | 5% | 216 nM | – | – | – | – |
| C[C@]12CC[C@@H]3c4ccc(OCCCN5CCCC5)cc4CC[C@H]3[C@@H]1CC[C@@H]2N1CCCC1 | 74% | 0.6 nM | 2.4 nM | 6.1 nM | 0.1 nM | Activity [22]: 26%; Activity [23]: 19%; Activity [24]: 36%; Activity [25]: 44%; Activity [26]: 64%; Ki [21]: 110 nM |
| S=C(NC1CCCCC1)N1CCC(c2cnc[nH]2)CC1 [THIOPERAMIDE] | – | – | 23 nM | – | – | Emax (Histamine H3 receptor [17]; filed as inverse agonist): 50% |
| C[C@]12CC[C@@H]3c4ccc(OCCCN5CCC(O)C5)cc4CC[C@H]3[C@@H]1CC[C@@H]2N1CCCC1 (stereo partly drawn) | 64% | 5.2 nM | 16.8 nM | 3.9 nM | 1.2 nM | – |
| C[C@]12CC[C@@H]3c4ccc(OCCCN5CCC(C(N)=O)CC5)cc4CC[C@H]3[C@@H]1CC[C@@H]2N1CCCC1 | 37% | 7 nM | 3.1 nM | 3 nM | 3.9 nM | – |
| CC(=O)C1CCN(CCCOc2ccc3c(c2)CC[C@@H]2[C@@H]3CC[C@]3(C)[C@@H](N4CCCC4)CC[C@@H]23)CC1 | – | 2.7 nM | 7.5 nM | 14.2 nM | 1.4 nM | – |
| C[C@]12CC[C@@H]3c4ccc(OCCCN5CCC(O)CC5)cc4CC[C@H]3[C@@H]1CC[C@@H]2N1CCCC1 | 55% | 5 nM | 24.3 nM | 4.2 nM | 4.4 nM | – |
| CC[C@]12CC[C@@H]3c4ccc(OCCCN5CCCC5)cc4CC[C@H]3[C@@H]1CC[C@@H]2N1CCCC1 | 69% | 0.8 nM | 16.6 nM | 16 nM | 0.9 nM | – |
